The record followed here is EP3315495A1, “N,N' -[…], N,N' -DIAR[…] N,N' -DIARY[…] FOR USE IN TREATMENT AND PREVENTION OF INFLAMMATORY DISEASE” (Universität Innsbruck, priority 2016, dated 2018).

Where two headings read alike, the source gives them in different places.

In one test the target is T1, isolated 5-LOX (Homo sapiens, UniProt P09917).
T1 construct: made in house; host or cells: E. coli
T1 sequence (P09917 1-674): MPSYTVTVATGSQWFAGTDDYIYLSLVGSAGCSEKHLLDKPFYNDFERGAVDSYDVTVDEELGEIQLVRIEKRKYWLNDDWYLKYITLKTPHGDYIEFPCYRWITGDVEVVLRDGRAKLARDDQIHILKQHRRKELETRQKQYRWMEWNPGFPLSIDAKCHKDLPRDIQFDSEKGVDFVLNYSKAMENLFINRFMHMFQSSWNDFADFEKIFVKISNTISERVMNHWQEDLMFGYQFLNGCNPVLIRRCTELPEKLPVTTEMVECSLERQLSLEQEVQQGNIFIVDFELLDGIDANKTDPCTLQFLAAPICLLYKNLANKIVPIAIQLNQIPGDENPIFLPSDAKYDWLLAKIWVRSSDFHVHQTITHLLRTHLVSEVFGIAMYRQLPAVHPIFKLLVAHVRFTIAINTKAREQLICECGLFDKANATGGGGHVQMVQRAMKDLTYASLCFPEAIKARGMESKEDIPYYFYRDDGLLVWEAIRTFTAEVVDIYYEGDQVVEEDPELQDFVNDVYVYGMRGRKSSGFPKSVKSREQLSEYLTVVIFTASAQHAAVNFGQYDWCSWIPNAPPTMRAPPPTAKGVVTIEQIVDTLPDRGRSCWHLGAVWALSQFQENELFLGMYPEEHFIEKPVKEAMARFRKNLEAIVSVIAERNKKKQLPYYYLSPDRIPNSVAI
Description: FLAP-independent cell-free enzymatic assay with isolated recombinant 5-LOX. Type of test: biochemical. The settings on record: for inhibition at 10 µM: read-out: Effect on isolated 5-LOX, % inhibition. As for the experimental part:
(§1) In both assays, product quantification was conducted with RP-HPLC and UV detection after solid phase extraction and addition of 200 ng prostaglandin B1 as internal standard.

Test [1] has as its system 5-LOX product formation in PMNL. The experiment in a line: 5-LOX product formation in PMNL stimulated with A23187 (cell-based). To be noted: for inhibition at 10 µM: read-out: Effect on 5-LOX product formation in PMNL, % inhibition; for IC50: read-out: Effect on 5-LOX product formation in PMNL, IC50. Further details: species or system human. On the procedure: Briefly, first a cell-based assay allows to determine the inhibition of the 5-LOX product biosynthesis. The cell suspension contained human neutrophils (PMNL) or monocytes, wherein the cells were isolated from buffy coats obtained from healthy donors pooled by gender. An aliquot cell suspension was incubated with the candidate compound for 15 min at 37 °C. The cells are treated with calcium ionophore A23187 to stimulate 5-LOX product formation for further 10 min (37 °C), optionally in presence of various concentrations of AA. The reaction was stopped with 1 mL methanol on ice.
as §1

The target in another test is T2, FLAP (Homo sapiens, UniProt P20292).
T2 sequence (P20292 1-161): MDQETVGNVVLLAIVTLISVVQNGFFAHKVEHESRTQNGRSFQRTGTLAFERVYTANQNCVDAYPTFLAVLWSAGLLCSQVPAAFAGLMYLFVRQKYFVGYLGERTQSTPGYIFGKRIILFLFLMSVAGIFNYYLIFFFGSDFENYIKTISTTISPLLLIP
The settings on record: active = inhibition of product formation in cells without 5-LOX activity in the cell-free assay.

Test [2] addresses T3, sEH (Homo sapiens, UniProt P34913).
T3 sequence (P34913 1-555): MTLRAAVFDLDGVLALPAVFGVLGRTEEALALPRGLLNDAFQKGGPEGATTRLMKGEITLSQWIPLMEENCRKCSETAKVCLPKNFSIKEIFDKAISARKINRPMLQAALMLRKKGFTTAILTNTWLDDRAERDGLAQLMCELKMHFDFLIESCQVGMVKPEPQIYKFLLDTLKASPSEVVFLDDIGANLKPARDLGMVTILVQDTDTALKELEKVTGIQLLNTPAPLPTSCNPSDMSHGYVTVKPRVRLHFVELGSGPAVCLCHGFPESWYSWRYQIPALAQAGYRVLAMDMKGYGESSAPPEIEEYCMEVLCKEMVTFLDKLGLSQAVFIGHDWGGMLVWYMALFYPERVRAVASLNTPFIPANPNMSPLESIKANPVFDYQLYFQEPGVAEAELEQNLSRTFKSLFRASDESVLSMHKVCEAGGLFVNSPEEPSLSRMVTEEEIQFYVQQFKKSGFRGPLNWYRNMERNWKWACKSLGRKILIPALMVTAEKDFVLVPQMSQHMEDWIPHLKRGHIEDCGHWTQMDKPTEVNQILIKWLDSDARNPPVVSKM
Description: biochemical. To be noted: read-out: Effect on sEH activity, % inhibition.
Description: (§2) In brief, sEH was expressed in transfected Sf9-cells. Isolation of sEH from the cell pellet was conducted with a benzylthiosepharose matrix. […] The reaction was stopped with ZnSO4 (0.2 M) after 60 min incubation. […] Inhibitors were tested for self fluorescence. Positive controls were AUDA (12-(3-adamantan-1-yl-ureido)dodecanacid) and DCU (N,N'-dicyclohexylurea) at 10 µM.

The target in test [3] is T3, sEH. To be noted: at 0.1 µM.
Description: as §2

By inhibition is commonly meant the drop in the measured response relative to a control, in per cent. In the case of `Cc1cc(OCc2nc3ccccc3n2C(=O)OC(C)(C)C)ccc1NC(=S)Nc1ccc(Cl)c(Cl)c1` [EZ15, N-[4-(1-tert.-Butoxycarbonyl-1H-benzimidazol-2-ylmethoxy)-2-methylphenyl]-N'-(3,4-dichlorophenyl)-thiourea], the inhibition at 10 µM is about 33% at isolated 5-LOX (at 10 µM); about 39% in test [1] (Homo sapiens, PMNL, at 10 µM); about 66% at sEH [2]. Also, the “Effect on FLAP activity” value on FLAP is “inactive”.

A word on the IC50: it is the midpoint of a concentration-inhibition curve. For `Cc1cc(OCc2nc3ccccc3[nH]2)ccc1NC(=S)Nc1ccc(Cl)c(Cl)c1` [EZ17, N-[4-(1H-Benzimidazol-2ylmethoxy)-2-methylphenyl]-N'-(3,4-dichlorophenyl)-thiourea], the inhibition at 10 µM is 65% on isolated 5-LOX (at 10 µM) and about 64% on sEH [2]. Also, in test [1] (Homo sapiens, PMNL), the IC50 was determined as 820 nM. For the same compound, the “Effect on FLAP activity” value at FLAP is listed as “active”.

On to `CC(C)(C)OC(=O)n1c(COc2ccc(NC(=O)Nc3ccc(Cl)c(Cl)c3)cc2)nc2ccccc21` [EZ18, N-[4-(1-tert.-Butoxycarbonyl-1H-benzimidazol-2-ylmethoxy)-phenyl]-N'-(3,4-dichlorophenyl)-urea], for which the inhibition at 10 µM on isolated 5-LOX (at 10 µM) is about 22%; in test [1] (Homo sapiens, PMNL, at 10 µM), about 40%. The inhibition at 0.1 µM on sEH [2] is about 67%.

`O=C(Nc1ccc(OCc2nc3ccccc3[nH]2)cc1)Nc1ccc(Cl)c(Cl)c1` [EZ19, N-[4-(1-H-Benzimidazol-2-ylmethoxy)-phenyl]-N'-(3,4-dichlorophenyl)-urea]: the “Effect on sEH activity, % inhibition” value at sEH [3] is reported as “∼52 % inhibition at 0.1 µM”. Besides, on isolated 5-LOX (at 10 µM), the “Effect on isolated 5-LOX, % inhibition” value was “∼33 % inhibitio n at 10 µM”. Besides, the IC50 in test [1] worked out at 550 nM. Besides, on FLAP, the “Effect on FLAP activity” value is recorded as “active”.

Take `CC(C)(C)OC(=O)n1c(COc2ccc(NC(=S)Nc3ccc(Cl)c(Cl)c3)cc2)nc2ccccc21` [EZ20, N-[4-(1-tert.-Butoxycarbonyl-1H-benzimidazol-2-ylmethoxy)-phenyl]-N'-(3,4-dichlorophenyl)-thiourea]: the inhibition at 10 µM on isolated 5-LOX was about 39%; in test [1] (Homo sapiens, PMNL) it was -65%. Also, the “Effect on FLAP activity” value at FLAP was “inactive”. Besides, the inhibition at 0.1 µM on sEH [2] is about 39%.

As for `S=C(Nc1ccc(OCc2nc3ccccc3[nH]2)cc1)Nc1ccc(Cl)c(Cl)c1` [EZ21, N-[4-(1-H-Benzimidazol-2-ylmethoxy)-phenyl]-N'-(3,4-dichlorophenyl)-thiourea], the inhibition at 10 µM at isolated 5-LOX (at 10 µM) is 87%; at sEH [2] it was about 54%. Further, the IC50 in test [1] (Homo sapiens, PMNL) turned out to be 690 nM.
